{
  "source": "patent US5603949A",
  "about": "“Use of a tocopherol phosphate or one of its derivatives, for the preparation of cosmetic or pharmaceutical compositions and compositions so obtained” (LVMH Recherche, priority 1991, dated 1997)",
  "target": "T1, phospholipase A2 (Rattus norvegicus, UniProt P14423)",
  "T1 construct": "The phospholipase A2 is isolated from the peritoneal cavity of a rat; from tissue; host or cells: peritoneal cavity of a rat",
  "T1 sequence (P14423 22-146)": "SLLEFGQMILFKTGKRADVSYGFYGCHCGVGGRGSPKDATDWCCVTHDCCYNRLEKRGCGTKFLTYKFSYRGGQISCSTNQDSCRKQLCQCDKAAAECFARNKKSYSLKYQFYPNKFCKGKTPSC",
  "experiment": "inhibition of phospholipase A2 (PLA2): release of 14C-labeled fatty acid from phosphatidylethanolamine",
  "type": "biochemical",
  "details": "PLA2 isolated from peritoneal cavity of a rat; 0.1M Tris-HCl, pH=9, Ca++; 20 min preincubation, then 20 min with substrate, 37° C.; read-out: 50% inhibitory concentration (IC50) (converted)",
  "method": "The inhibition of phospholipase A2, which is involved in the production of allergy and inflammation mediators, especially in the inflammatory reaction of skin allergies, is measured according to the protocol described by H. W. Chang, I. Kudo, M. Tomita and K. Inoue in J. Biochem. (Tokyo) 102(1): 147-154 (1987).\nThe phospholipase A2 is isolated from the peritoneal cavity of a rat. PLA2 hydrolyzes the ester linkage in the 2-position of the glycerol of a phosphatidylethanolamine, this position being occupied by a fatty acid residue labeled with carbon 14. The radioactive fatty acid released will be extracted and then quantitatively analyzed by liquid scintillation. In the presence of the PLA2 inhibitor, this hydrolysis will be reduced and less released fatty acid will therefore be determined.\nIn practice, the PLA2 and the test product are placed in a 0.1M Tris-HCl buffer, pH=9, containing 4 mmol of Ca^++ and the mixture is incubated for 20 min at 37° C., with agitation. After this contact time, the labeled phosphatidylethanolamine is added and incubation is continued for 20 min at 37° C., with agitation, to allow the hydrolysis of this substrate. n-Heptane is then used to extract the labeled fatty acid released during the hydrolysis, the latter then being quantitatively analyzed by liquid scintillation. […]",
  "note": "Counter-ions that a name gives are not always drawn.",
  "data": [
    {"molecule": "Cc1cc(OP(=O)(O)O)cc2c1OC(C)(CCCC(C)CCCC(C)CCCC(C)C)CC2", "note": "(stereo not shown) [disodium salt of delta-tocopherol phosphate]", "values": [
      {"measurement": "IC50", "value": 20.7, "unit": "µM"}
    ]}
  ]
}
